Measured values as given in ChEMBL document CHEMBL1124718, “Synthesis and structure-activity relationship of C5-substituted analogues of (+-)-10,11-dihydro-5H-dibenzo[a,d]cyclohepten-5,10-imine [(+-)-desmethyl-MK801]: ligands for the NMDA receptor-coupled phencyclidine binding site” (J Med Chem, 1990).

What follows are molecules tested against Glutamate receptor ionotropic, NMDA 1 (Rattus norvegicus, UniProt P35439) (assay: Ability to displace [3H]TCP from high affinity PCP N-methyl-D-aspartate glutamate receptor in rat brain homogenates in vitro was determined).
Format: tissue-based

| SMILES | Ki |
| --- | --- |
| c1ccc2c(c1)CC1NC2c2ccccc21 (configuration not stated) | 0.12 µM |
| IC12NC(Cc3ccccc31)c1ccccc12 (configuration not stated) | 0.43 µM |
| BrCC12NC(Cc3ccccc31)c1ccccc12 (configuration not stated) | 0.033 µM |
| COCC12NC(Cc3ccccc31)c1ccccc12 (configuration not stated) | 0.3 µM |
| NCCC12NC(Cc3ccccc31)c1ccccc12 (configuration not stated) | 0.02 µM |
| ClCC12NC(Cc3ccccc31)c1ccccc12 (configuration not stated) | 0.012 µM |
| NC(=O)C12NC(Cc3ccccc31)c1ccccc12 (configuration not stated) | 11.3 µM |
| CCCC12NC(Cc3ccccc31)c1ccccc12 (configuration not stated) | 1.1 µM |
| NCC12NC(Cc3ccccc31)c1ccccc12 (configuration not stated) | 0.117 µM |
| CCCCCCC12NC(Cc3ccccc31)c1ccccc12 (configuration not stated) | 0.98 µM |
| N#CCC12NC(Cc3ccccc31)c1ccccc12 (configuration not stated) | 0.967 µM |
| CCC12NC(Cc3ccccc31)c1ccccc12 (configuration not stated) | 0.012 µM |
| O=C(O)C12NC(Cc3ccccc31)c1ccccc12 (configuration not stated) | 32.3 µM |
| OCC12NC(Cc3ccccc31)c1ccccc12 (configuration not stated) | 0.04 µM |
| c1ccc(COCC23NC(Cc4ccccc42)c2ccccc23)cc1 (configuration not stated) | 10 µM |
| C=CCC12NC(Cc3ccccc31)c1ccccc12 (configuration not stated) | 0.07 µM |
| CCCCCCCCCCC12NC(Cc3ccccc31)c1ccccc12 (configuration not stated) | 21.6 µM |
